Experiment: Human HepG2 cell viability assay in 384 well format
Assay type: toxicity, cell-based
Set-up: dose 125 nL, time 70.5 hour; cytotoxicity at 70.5 h: concentration not given beside the values
Conditions: HepG2 cells, read-out: Inhibition

In order of falling cytotoxicity at 70.5 h:
1. O=C1Nc2ccccc2NC12CCN(c1cccc(C(F)(F)F)n1)CC2  52.4%
2. NCCc1nc(N(Cc2nccs2)C2CC2)c2ccccc2n1  37.2%
3. CC(C)[C@@H]1CN(Cc2ccccc2C#N)C[C@H]1N(C)C  31.1%
4. NC(=O)CN1CCCC(C(=O)N2CCC(O)(c3ccccc3)CC2)C1 (stereo unspecified)  31%
5. O=C(c1ccc[nH]1)N1CCc2c(cccc2S(=O)(=O)N2CCOCC2)C1  29.8%
6. CN(Cc1ccc(-n2cccn2)cc1)C(=O)CCC(F)(F)F  26.9%
7. COc1ccc(-c2cc(CNc3ncnc4c3CCNCC4)no2)cc1  23.4%
8. COc1ccc(OC)c2c(C)cc(N(C)Cc3cc(C)on3)nc12  23.1%
9. CN(C)c1ccc(CC(=O)N2CCOCC(O)C2)cc1 (stereo unspecified)  22.5%
10. Cc1nnsc1C(=O)NCc1cccnc1N1CCc2ccccc2C1  16.7%
11. Cc1ccc2nc(C(=O)N3CCC(CCn4cccn4)CC3)cn2c1  16%
12. CCN(c1ccc(C(=O)N2CCC(C(N)=O)CC2)cc1)S(=O)(=O)CC  15.4%
13. CCc1nc(NC2CCN(CC(=O)NC3CC3)CC2)c2cnn(C)c2n1  14.5%
14. CC[C@@]1(O)CCN(C(=O)CCSCc2ccc(F)cc2)C[C@H]1O  14.3%
15. COc1cccc(OCCCc2cc(C#N)ccn2)c1  11%
16. COc1ccc(C(=O)C2CCCN(c3cc(OC)ncn3)C2)c(C)c1 (stereo unspecified)  10.1%
17. CN1C(=O)CC(C(=O)O)C12CCN(Cc1ccc(Cl)c(F)c1)CC2 (stereo unspecified)  9.92%
18. O=C(N[C@@H]1CCN(c2nccc3ccccc23)C[C@H]1O)c1cnccn1  9.52%
19. C/C=C(\C)CN1C[C@H](NC(=O)CN2CCCC2=O)[C@@H](c2ccc(C)o2)C1  9.35%
20. CCCN1CCCn2nc(CNC(=O)CC(C)n3ccnc3C)cc2C1 (stereo unspecified)  9.04%
21. CC(C)Cn1cncc1CNC(=O)c1cccc(CC2CCNCC2)c1  8.07%
22. CCCn1cc(C(=O)NC(CC(=O)O)c2ccccc2F)c(C)n1 (stereo unspecified)  6.87%
23. CCc1[nH]c2c(CNC(=O)[C@@H]3CCCN3C)cc(C)cc2c1C  6.71%
24. COc1ncc(CN2CCC3(CCNC(=O)CC3)CC2)cn1  4.98%
25. Cc1nc(CCNC(=O)C2CC(=O)N(C(C)(C)C)C2)sc1Cl (stereo unspecified)  4.69%
26. CN(c1ccc(Cl)c(C(=O)NCCCN2CCOCC2)c1)S(C)(=O)=O  3.59%
27. Cc1nc(N2CCCCC2)ncc1-c1cc(=O)[nH]c(N2CCCC2)n1  2.6%
28. Cc1cc(Cc2ccc(S(=O)(=O)N3CCSCC3)cc2)c(=O)[nH]n1  1.5%
29. COc1cccc(OC)c1CN1CC(=O)N(c2ccc(C)cc2)CC1C (stereo unspecified)  1.44%
30. COc1ccc(CC2CN(C3CCSCC3)CCO2)cc1 (stereo unspecified)  1.2%
31. CC(=O)Cn1c(C)cc(=O)c2cc(F)ccc21  1.19%
32. CS(=O)(=O)NCCC(=O)N1CCC(Cc2ccc(CO)cc2)C1 (stereo unspecified)  1.14%
33. Nc1nc2c(c(NC(Cn3cccn3)c3ccccc3)n1)CCNCC2 (stereo unspecified)  0.802%
34. Cc1nc2c(c(=O)n1C)CCN(Cc1cc3ccccc3[nH]1)CC2  0.793%
35. CC(C)CCN(C)Cc1ccccc1-c1nc(C(C)C)cc(=O)[nH]1  0.496%
36. CSCCNC(=O)C1CCC(=O)N(C2CCCC2)C1 (stereo unspecified)  0.162%
37. CCc1cnc(NCc2ccccc2Cn2cccn2)nc1  0.071%
38. COc1ccc2c(c1)OCC(CNC(=O)NC(C)(C)C)C2 (stereo unspecified)  -0.00962%
39. CCN1CCCC(c2c(-c3ccccc3)ncn2CC(N)=O)C1 (stereo unspecified)  -0.352%
40. O=C(NCCCc1nnc2ccccn12)c1ccccc1C1CCNC1 (stereo unspecified)  -0.698%
41. CCc1noc(C2CCCCN2C(=O)c2ccccc2)n1 (stereo unspecified)  -1.29%
42. NC(=O)NCC(=O)N1CCCC(c2nccn2CC2CCC2)C1 (stereo unspecified)  -1.33%
43. CN(c1ccc(C(=O)NCCN2CCOCC2)c(Cl)c1)S(C)(=O)=O  -1.41%
44. CCC(C(=O)NCc1ccccn1)N(c1cccc(C)c1)S(C)(=O)=O (stereo unspecified)  -1.44%
45. CN1CCC(N(Cc2ccncc2)C(=O)COCC2CCCCO2)CC1 (stereo unspecified)  -1.65%
46. CC(C)c1cncnc1-c1cc(F)cc2c1OC(CN)C2 (stereo unspecified)  -1.8%
47. C[C@@H]1CN(C2(C(=O)N3CCNCC3)Cc3ccccc3C2)C[C@H](C)O1  -2.17%
48. CSc1ncc(CNC(C)c2cnn(-c3ccccc3)c2C)cn1 (stereo unspecified)  -2.21%
49. CCN(c1ccc(C(=O)N2CCCCCC2)cc1)S(=O)(=O)CC  -2.32%
50. COc1ccc(N2Cc3n[nH]c(=O)n3C2=O)cc1  -3.14%
51. CC(C)[C@H]1CN(CCCO)C[C@@H]1NC(=O)CCS(C)(=O)=O  -3.16%
52. CCNc1ncc(C(=O)NCC2OCCc3ccccc32)cn1 (stereo unspecified)  -3.21%
53. Cc1ccc(-c2noc(CC[C@@H]3CCCN4CCCC[C@H]34)n2)nn1  -3.37%
54. CCC(NC(=O)C1CCN(S(C)(=O)=O)CC1)c1ccc(C)cc1 (stereo unspecified)  -3.68%
55. Cc1nc(N2CCCN(c3ncccn3)CC2)c2cnn(C)c2n1  -3.77%
56. COCCCn1cnnc1CNc1cc(C)nc2ccnn12  -4.02%
57. Cc1ccccc1CN1C[C@@H]2CC[C@H](C1)N(CC1CCC1)C2=O  -4.63%
58. COCC[C@]1(O)CCN(S(=O)(=O)c2ccc(C)cc2OC)C[C@H]1C  -4.64%
59. O=C(C1CCC1)N1CCN(Cc2ccccc2F)[C@H]2CS(=O)(=O)C[C@H]21  -4.65%
60. Cc1c(-c2ccccc2)ncn1CCCNc1cccnc1  -4.84%
61. CCCc1cc(NC2CCN(Cc3ccccn3)CC2)n2nccc2n1  -4.87%
62. COc1cc(F)ccc1C(C(=O)O)N1CCN(C2CCCCC2)CC1 (stereo unspecified)  -4.9%
63. O=C(NCc1cccc(C(F)(F)F)c1)C(c1cccnc1)N1CCCC1 (stereo unspecified)  -4.98%
64. O=S(=O)(c1cccnc1)N1C[C@@H]2CC[C@H](C1)N(Cc1ccccn1)C2  -5.11%
65. O=C(NCCc1nc(-c2ccccn2)no1)c1ccc(C2CCCO2)s1 (stereo unspecified)  -5.15%
66. CC(C)[C@@H]1CN(CCOc2ccccc2)C[C@H]1NS(=O)(=O)N(C)C  -5.28%
67. CN(C)C(=O)N1CCN(CCCOc2ccccc2)[C@H]2CS(=O)(=O)C[C@H]21  -5.64%
68. COc1cc(C)ccc1OCc1nc(C(=O)N2CCCNC(=O)C2)co1  -5.88%
69. CC(C)(CO)Nc1ccc(-c2nc(-c3ccccc3F)no2)cn1  -5.95%
70. CN(C)CCO[C@H]1C[C@@H](O)C12CCN(c1cnccn1)CC2  -6.05%
71. CCCN(CC)Cc1ccc(C(=O)NCC2COCCO2)c(=O)[nH]1 (stereo unspecified)  -6.16%
72. Cc1cccc(C)c1OC1CN(Cc2cnc(-c3ccco3)nc2)C1  -6.4%
73. CNc1nc(N2CCC3(CCCNC3=O)C2)nc2c1CCC2 (stereo unspecified)  -6.8%
74. CSCc1nc(CNC(=O)C2CCCN(C(=O)N(C)C)C2)cs1 (stereo unspecified)  -7.03%
75. CC(C)c1cc(C(=O)N(C)C(C)c2nccs2)no1 (stereo unspecified)  -7.34%
76. O=C1O[C@@H]2CN(c3cnccn3)C[C@@H]2N1CCCc1ccc(F)cc1  -7.8%
77. COCCn1ccnc1CN(Cc1ccccn1)Cc1sccc1C  -7.84%
78. C[C@@H]1CN(C(=O)C2CCS(=O)(=O)CC2)C[C@]1(C)O  -8.15%
79. CCC(CC)n1nc(C)cc1NC(=O)CC1CCOCC1  -8.16%
80. CC(C)(NC(=O)c1coc(COc2cccc(F)c2)n1)C(N)=O  -8.32%
81. CCCOCC1CCN(C(=O)c2cnc(-c3csc(C)n3)nc2O)C1 (stereo unspecified)  -8.59%
82. CN(C)CCNc1cc(-c2ccccc2C(N)=O)c2cc[nH]c2n1  -8.6%
83. COC(=O)C(CO)NC(=O)c1cn(Cc2ccccc2F)nn1 (stereo unspecified)  -8.74%
84. O=C(Cn1ccnc1)N(CCO)CCSc1ccc(Cl)cc1  -8.84%
85. CCC(=O)N1CCCC1C(=O)N1CCC(Cc2ccc(F)cc2)CC1 (stereo unspecified)  -9.21%
86. O=C(CN1CCc2onc(-c3ccccc3F)c2C1)NC1CC1  -9.25%
87. CSCCCN1C[C@H](NC(=O)c2ccc(CO)cc2)[C@@H](C2CC2)C1  -9.41%
88. CCOCc1nc2c(c(N(C)Cc3snnc3C)n1)CCNCC2  -9.47%
89. CN1CCC(Oc2ccc(NC(=O)c3ccccc3)cc2)CC1  -9.56%
90. CCCS(=O)(=O)N1C[C@@H]2CC[C@H](C1)N(Cc1cscn1)C2=O  -9.73%
91. CSCC(=O)N1C[C@H]2CC[C@@H]1CN(C1Cc3ccccc3C1)C2  -9.76%
92. CSCCCN(CCN1CCOCC1)Cc1ccco1  -9.79%
93. CCc1nc(CN(CCc2ccccc2)C2CCN(C)CC2)no1  -9.81%
94. CC(C)N1CCC(CC(=O)NCC2OCCc3ccccc32)CC1 (stereo unspecified)  -9.87%
95. CO[C@H]1CN(C(=O)c2ccc(-c3ccccc3)[nH]2)CC[C@H]1N  -10.1%
96. Cn1cc(C(=O)N2CCCCC2CCc2ccc(O)cc2)cn1 (stereo unspecified)  -10.3%
97. Cn1nc(C(C)(C)C)cc1NC(=O)Cn1ccnc1  -10.5%
98. Cc1ncc(CNC2CC(=O)N(CCc3ccc(F)cc3)C2)n1C (stereo unspecified)  -10.7%
99. Cc1cccc(NCc2nn(C)c(=O)[nH]2)c1  -11%
100. O=C(c1ncccc1O)N1CCN(Cc2ccco2)C(CCO)C1 (stereo unspecified)  -11.1%
101. CC(C)c1cc(-c2nn3c(C(C)C)nnc3s2)[nH]n1  -11.4%
102. c1nc(NCc2cc3n(n2)CCN(C2CCCCC2)C3)c2nc[nH]c2n1  -11.7%
103. CC(C)c1noc(-c2ccc(NCC3CCCOC3)nc2)n1 (stereo unspecified)  -12.4%
104. CC(c1cccc(-c2ncc(C#N)c(N)n2)c1)N(C)C (stereo unspecified)  -12.5%
105. CN(Cc1ccncc1)Cc1cnn(-c2ccc(F)cc2)c1  -13.3%
106. O=C(Cc1ccsc1)N1CCC(c2ccncc2)CC1  -13.6%
107. COc1ccc(F)c(-c2cc(C(=O)NC3CC3)ccn2)c1  -14.2%
108. COc1cc(Cl)cc(CN2CCCC(N3CCCC3)C2)c1OC (stereo unspecified)  -14.7%
109. CSCC(=O)N1CCc2c(cnc(C)c2-c2noc(-c3cscn3)n2)C1  -15.6%
110. CC(C)Cc1cc(C(=O)NCC(O)c2ccc(F)cc2)n(C)n1 (stereo unspecified)  -16.2%
111. COC[C@]1(O)CCN(Cc2ccc(N(C)C)nc2)CC1(C)C  -17.9%
